Laboratory results as given in article PMC8900595 (Journal of medicinal chemistry, 2021).

Test system: H1N1 A/WSN/1933 virus
Type: cell-based, influenza A virus

`CCN(c1ccccc1C)S(=O)(=O)c1cc(Cl)ccc1Cl` [compound 1, 2,5-dichloro-N-ethyl-N-(o-tolyl)-benzenesulfonamide] was tested, and the “concentration required for maximum virus inhibition (three logs) while maintaining enough virus production for passages” value was 0.5 μM.
